Experimental data published in patent US20250237649A1 (priority 2021, published 2025).
Where two headings read alike, the source gives them in different places. Residues, ends and D or L forms follow the SMILES beside them. *: point of attachment. Dabcyl = CN(C)c1ccc(N=Nc2ccc(C(=O)*)cc2)cc1; EDANS = O=S(=O)(O)c1cccc2c(NCCN*)cccc12; pNA = O=[N+]([O-])c1ccc(N*)cc1; Cbz = O=C(OCc1ccccc1)*

Experiments:
Hip1 [1] = molecular target: T1, Hip1 (Mycobacterium tuberculosis, UniProt P9WHR3); assay: Inhibition of Hip1 (Ki determination); format: biochemical
T1 sequence (P9WHR3 31-520): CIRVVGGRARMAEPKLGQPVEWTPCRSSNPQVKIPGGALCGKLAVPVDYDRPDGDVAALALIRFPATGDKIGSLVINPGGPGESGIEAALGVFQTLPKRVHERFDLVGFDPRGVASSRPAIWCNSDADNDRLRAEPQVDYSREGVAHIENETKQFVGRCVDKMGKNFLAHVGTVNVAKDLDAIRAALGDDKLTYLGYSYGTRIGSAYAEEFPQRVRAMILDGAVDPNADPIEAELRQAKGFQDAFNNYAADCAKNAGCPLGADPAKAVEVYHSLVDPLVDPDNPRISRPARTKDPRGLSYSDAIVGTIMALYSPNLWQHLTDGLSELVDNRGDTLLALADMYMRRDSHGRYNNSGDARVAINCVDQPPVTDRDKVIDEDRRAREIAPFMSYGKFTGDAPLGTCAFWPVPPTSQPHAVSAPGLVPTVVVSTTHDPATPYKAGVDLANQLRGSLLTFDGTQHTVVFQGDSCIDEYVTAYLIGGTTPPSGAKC

Hip1 [2] = molecular target: T1, Hip1; assay: Km determination of Hip1 substrates (Michaelis-Menten); format: biochemical
[3] = read-out: Km (fluorescent substrate)

Compound | Km (Hip1 [2]; [3]) | other results
COC(=O)C(=O)[C@H](C[C@@H]1CCNC1=O)NC(=O)[C@H](CCCCN)NC(=O)[C@H](Cc1ccccc1)NC(=O)OCc1ccccc1 [Inhibitor Compound 2, Cbz-Phe-Lys-Glnlac-CO—CO2Me] |  | Ki (Hip1 [1]): 117 ± 15 pM
CC(C)C[C@H](NC(=O)CNC(=O)[C@H](CCC(N)=O)NC(=O)[C@H](CCCCN)NC(=O)[C@H](Cc1ccccc1)NC(=O)[C@H](CCC(=O)O)NC(=O)c1ccc(N=Nc2ccc(N(C)C)cc2)cc1)C(=O)N[C@@H](CCC(=O)NCCNc1cccc2c(S(=O)(=O)O)cccc12)C(=O)N[C@@H](CCCNC(=N)N)C(=O)O [UFNG2, Dabcyl-Glu-Phe-Lys-Gln-Gly-Leu-Glu-(EDANS)-Arg] (Dabcyl-EFKQGLE(EDANS)R-OH) | 37.6 µM | 
CC(C)C[C@H](NC(=O)[C@H](CCCCN)NC(=O)[C@H](Cc1ccccc1)NC(=O)OCc1ccccc1)C(=O)Nc1ccc([N+](=O)[O-])cc1 [Cbz-Phe-Lys-Leu-pNa] (Cbz-Phe-Lys-Leu-pNA) |  | Km (Hip1 [2]; three independent determinations averaged, read-out: Km (chromogenic substrate)): 0.421 µM
CC(C)C[C@H](NC(=O)CNC(=O)[C@H](CCCNC(=N)N)NC(=O)[C@H](CCCNC(=N)N)NC(=O)[C@H](C)NC(=O)[C@H](CCC(=O)O)NC(=O)c1ccc(N=Nc2ccc(N(C)C)cc2)cc1)C(=O)N[C@@H](CCC(=O)NCCNc1cccc2c(S(=O)(=O)O)cccc12)C(=O)N[C@@H](CCCNC(=N)N)C(=O)O [UFNG1] (Dabcyl-EARRGLE(EDANS)R-OH) | 17.5 µM | 
